Common to all, as to format: cell-based, human
Data set [1] concerns μHF. As to the kind of experiment: Cytotoxicity testing on μHF, viability by ATP (CellTiter Glo). The following applies: for Mean ATP content in μHF after 24 H treatment: N = 5 μHF, CN 1306.1; for ATP content relative to threshold (50% of negative control): 1-10-100 ng/ml, 24 h. Here is the method:
Cytotoxicity testing has been performed on μHF at day 3 in order to select the testing concentration of peptides for the following screening assays.
Treatments: Negative control: 1 (not treated), Positive control: FGF18 100 ng/ml, Treatments: 39 (13 peptides, 3 concentrations each: 1-10-100 ng/ml), Biological replicates: 5 μHF for each treatment, Time-point: 1 (after 24 H of treatment), Read-out parameters: Viability by ATP
The test items have been tested at 3 concentrations/each for their cytotoxicity potential after 24 h exposure on μHF. FGF18 100 ng/ml have been used as positive control. The toxicity has been evaluated by ATP release on n=5 μHF.
The μHF microtissue were reconstructed using the hanging drop method into GRAVITY^PLUS plates from InSphero (Switzerland) using fibroblasts and keratinocytes from human origin. The MTs were Transferred in GRAVITYTRAP for treatments and manipulation. Culture conditions: incubator at 37° C., 5% CO2, saturated humidity with adequate culture medium. The Fibroblast batch and keratinocytes has been tested for the absence of HIV, Hepatitis B, Hepatitis C, Mycoplasma. The maintenance medium has been tested for sterility.
The kit CellTiter Glo® (Promega) Luminescent cell Viability Assay is used for Adenosine-5- triphosphate (ATP) quantification. The assay procedures involves adding the single reagent directly to MTs cultured in medium. The cell lysis and the generation of a luminescent signal is proportional to the amount of ATP present. ATP measurements have been performed on 5 biological replicates and mean and standard deviation have been calculated. The threshold of 50% viability in comparison to negative control have been used as cut off; the max concentration possible over threshold has been used for the efficacy screening test.
For the selection of test concentrations of each peptide, the 50% ATP content in comparison with negative (not treated) control has been selected as threshold. The higher concentration over the selected threshold has been used for efficacy screening test for peptides form P1 to P9.
A general note: Cellular ATP, detected with luciferase, serves as a proxy for viable cell number.

The test system of data set [2] is WNT5B. As to the kind of experiment: Regressive μHF efficacy screening: WNT5B gene expression by RTqPCR. Conditions: FGF18 100 ng/ml, after TGFβ1 10 ng/ml 72H. From the text:
(§1) To assess the biological activity of the identified set of 13 peptides and their capability to maintain quiescence state, the Vitroscreen μHF standard model has been adapted pushing it in a regressive state (catagen-like) by the application of TGFβ1 to reduce the expression of genes linked to active growth phase (anagen) and to make the model more responsive to FGF18 as quiescence signal.
(§2) In particular, in this regressive model, the application of TGFβ1 to 72H induces a catagen-like status with the down-regulation of FGF7 anagen gene and CCND1 as proliferation marker. […]
(§3) After the selection of test concentrations of the peptides, efficacy was performed on regressing μHF (TGFβ1 treated) at day 5 in order to evaluate the further efficacy of peptides to decrease the gene expression of proliferation (CCND1) and anagen marker (FGF7). The potential down-regulation of epithelial growth regulator WNT5B has been evaluated as an optional parameter.
(§4) Treatments: Negative control: 1 (not treated), Regression inducer: TGFβ1 10 ng/ml, Positive control: FGF18 10-100 ng/ml, Treatments: 13 peptides (1 concentration each), Biological replicates: 1 biological replicates from pool of 20 μHF, Time-point: after 72H of TGFβ1 induction followed by 24H of peptide or FGF18 application, Read-out parameters: 1 Proliferation gene (CCND1) by RTqPCR, 2 anagen regulators (FGF7, WNT5B) by RTqPCR […]
On the technique in general: Real-time PCR tracks product formation cycle by cycle.

For data set [3], the system named is regressive μHF. As to the kind of experiment: Overall efficacy in mimicking FGF18 in regressive μHF (CCND1, FGF7, WNT5B together). Conditions: FGF18 10-100 ng/ml, after TGFβ1.
From the text: as §1, §2
The μHF model has been used for a screening study with the aim to characterize the 13 peptides designed on the basis of FGF18 structure in order to mimic its biological function in retarding hair growth. The following test items have been evaluated after the selection of test concentration in a preliminary tox assay.
After the selection of test concentrations of the peptides, efficacy was performed on regressing μHF (TGFβ1 treated) at day 5 in order to evaluate the further efficacy of peptides to decrease the gene expression of proliferation (CCND1) and anagen marker (FGF7). The potential down-regulation of epithelial growth regulator WNT5B has been evaluated as an optional parameter. […]

For data set [4], the system named is CCND1. Nature of the data set: Regressive μHF efficacy screening: CCND1 gene expression by RTqPCR.
From the text: as §1, §2, §3, §4

The test system of data set [5] is FGF7. As to the kind of experiment: Regressive μHF efficacy screening: FGF7 gene expression by RTqPCR.
From the text: as §1, §2, §3, §4

Setting [6] is: FGF18 100 ng/ml, after TGFβ1 10 ng/ml 72H.

Ends that are not written are not given here. Peptide text beside a SMILES is read from it.

Regarding `CC(C)C[C@H](NC(=O)[C@H](CCC(N)=O)NC(=O)[C@@H](N)CCCCN)C(=O)N[C@@H](CCCNC(=N)N)C(=O)O` [Peptide P1, KQLR] (H-KQLR-OH; N-terminus and C-terminus assumed), the “Mean ATP content in μHF after 24 H treatment” value (shortened to “Mean ATP content in μHF”) was 1876.5 nM in data set [1] (1 ng/ml), 2007.2 nM in data set [1] (10 ng/ml) and 1903.1 nM in data set [1] (100 ng/ml).

On to `CC(C)C[C@H](NC(=O)[C@H](CCCNC(=N)N)NC(=O)[C@@H](N)CC(=O)O)C(=O)N[C@@H](CCCCN)C(=O)O` [Peptide P3, DRLK] (H-DRLK-OH; N-terminus and C-terminus assumed), for which the figures for the “Mean ATP content in μHF” value in data set [1] (1 ng/ml), in data set [1] (10 ng/ml) and in data set [1] (100 ng/ml) were 1026.2 nM, 924.8 nM and 1631.2 nM, respectively.

With `C[C@@H](O)[C@H](NC(=O)[C@H](CCCCN)NC(=O)[C@@H](N)CCC(=O)O)C(=O)N[C@@H](CC(=O)O)C(=O)O` [Peptide P4, EKTD] (H-EKTD-OH; N-terminus and C-terminus assumed), the “Mean ATP content in μHF” value was 1567.7 nM in data set [1] (1 ng/ml), 1715.2 nM in data set [1] (10 ng/ml) and 1597.4 nM in data set [1] (100 ng/ml).

Take `NCCCC[C@H](NC(=O)[C@@H](N)CCC(=O)O)C(=O)N[C@@H](CC(=O)O)C(=O)N[C@@H](CC(=O)O)C(=O)O` [Peptide P5, EKDD] (H-EKDD-OH; N-terminus and C-terminus assumed): the “Mean ATP content in μHF” value was 1263.3 nM in data set [1] (1 ng/ml), 1108.9 nM in data set [1] (10 ng/ml) and 1255.5 nM in data set [1] (100 ng/ml).

Turning to `C[C@@H](O)[C@H](NC(=O)[C@H](CCCNC(=N)N)NC(=O)[C@@H](N)CCCCN)C(=O)NCC(=O)O` [Peptide P6, KRTG] (H-KRTG-OH; N-terminus and C-terminus assumed), the “Mean ATP content in μHF” value in data set [1] (1 ng/ml) is 1122.0 nM; in data set [1] (10 ng/ml) it was 1116.0 nM; in data set [1] (100 ng/ml), 1313.3 nM.

As to `NCCCC[C@H](NC(=O)[C@@H](N)CCC(=O)O)C(=O)N[C@@H](CC(N)=O)C(=O)N[C@@H](CC(=O)O)C(=O)O` [Peptide P7, EKND] (H-EKND-OH; N-terminus and C-terminus assumed), the figures for the “Mean ATP content in μHF” value in data set [1] (1 ng/ml), in data set [1] (10 ng/ml) and in data set [1] (100 ng/ml) were 1275.4 nM, 1243.9 nM and 1258.8 nM, respectively.

In the case of `N=C(N)NCCC[C@H](NC(=O)[C@@H](N)CC(=O)O)C(=O)N[C@@H](CC(=O)O)C(=O)N[C@@H](CCC(=O)O)C(=O)O` [Peptide P8, DRDE] (H-DRDE-OH; N-terminus and C-terminus assumed), the “Mean ATP content in μHF” value in data set [1] (1 ng/ml) worked out at 1148.5 nM; in data set [1] (10 ng/ml), 1155.5 nM; in data set [1] (100 ng/ml), 1229.3 nM.

Consider `NCCCC[C@H](NC(=O)[C@@H](N)CC(=O)O)C(=O)N[C@@H](CO)C(=O)N[C@@H](CCC(=O)O)C(=O)O` [Peptide P9, DKSE] (H-DKSE-OH; N-terminus and C-terminus assumed), for which the “Mean ATP content in μHF” value in data set [1] (1 ng/ml) is listed as 1521.4 nM; in data set [1] (10 ng/ml), 1273.6 nM; in data set [1] (100 ng/ml) it was 1469.4 nM.

Regarding `CC(C)[C@H](NC(=O)[C@H](CCCNC(=N)N)NC(=O)[C@@H](N)CC(=O)O)C(=O)N[C@@H](CCC(=O)O)C(=O)O` [Peptide P10, DRVE] (H-DRVE-OH; N-terminus and C-terminus assumed), the entries for the “Mean ATP content in μHF” value in data set [1] (1 ng/ml), in data set [1] (10 ng/ml) and in data set [1] (100 ng/ml) were 1727.8 nM, 1706.1 nM and 1329.1 nM, respectively. Besides, the “ATP content relative to threshold (50% of negative control)” value in data set [1] is “over the threshold”.

Consider `C[C@@H](O)[C@H](NC(=O)[C@H](CCCNC(=N)N)NC(=O)[C@@H](N)CC(=O)O)C(=O)N[C@@H](CC(=O)O)C(=O)O` [Peptide P11, DRTD] (H-DRTD-OH; N-terminus and C-terminus assumed), for which the “Mean ATP content in μHF” value stood at 463.1 nM in data set [1] (1 ng/ml), 447.0 nM in data set [1] (10 ng/ml) and 149.0 nM in data set [1] (100 ng/ml). In data set [1], the “ATP content relative to threshold (50% of negative control)” value is on record as “under-threshold”.

Regarding `CC[C@H](C)[C@H](N)C(=O)N[C@@H](CCC(=O)O)C(=O)N[C@@H](CCCCN)C(=O)N[C@H](C(=O)O)C(C)C` [Peptide P12, IEKV] (H-IEKV-OH; N-terminus and C-terminus assumed), the “Mean ATP content in μHF” value is given as 435.7 nM in data set [1] (1 ng/ml), 562.8 nM in data set [1] (10 ng/ml) and 370.0 nM in data set [1] (100 ng/ml). The “ATP content relative to threshold (50% of negative control)” value in data set [1] is reported as “under-threshold”.

For `CC(C)[C@H](NC(=O)[C@H](CCCNC(=N)N)NC(=O)[C@@H](N)CC(=O)O)C(=O)O` [Peptide P13, DRV] (H-Asp-Arg-Val-OH), the “Mean ATP content in μHF” value in data set [1] (1 ng/ml) is 576.0 nM; in data set [1] (10 ng/ml) it was 516.6 nM; in data set [1] (100 ng/ml) it was 404.1 nM. Further, in data set [1], the “ATP content relative to threshold (50% of negative control)” value is given as “under-threshold”.

Take Fibroblast Growth Factor 18 [FGF18]: in data set [1] (100 ng/ml), the “Mean ATP content in μHF” value is 1560.3 nM. Also, the “Effect on WNT5b expression after TGFβ1” value in data set [2] is “decrease”. In addition, the “Effect in enhancing the down regulation of anagen markers” value in data set [3] is listed as “dose-dependent effect”. Moreover, the “Effect on CCND1 expression after TGFβ1” value in data set [4] (setting [6]) is listed as “further down-regulation”. For the same compound, in data set [5] (setting [6]), the “Effect on FGF7 expression after TGFβ1” value was “further down-regulation”.

On to RTGQYK [Peptide P2, RTGQYK], for which the entries for the “Mean ATP content in μHF” value in data set [1] (1 ng/ml), in data set [1] (10 ng/ml) and in data set [1] (100 ng/ml) were 1522.4 nM, 1838.6 nM and 1687.8 nM, respectively.

As to “Transforming Growth Factor Beta 1 [TGFβ1]”, the “Effect on expression of CCND1 versus CN” value in data set [4] (TGFβ1 10 ng/ml, 72H) was “reduced”. The “Effect on expression of FGF7 versus CN” value in data set [5] (TGFβ1 10 ng/ml, 72H) is “reduced”.

Values taken from patent US12139555B2, “Peptides and compositions for inhibiting hair growth” (RODAN & FIELDS, LLC, priority 2019, dated 2024).
